Where two headings read alike, the source gives them in different places.
Columns and labels:
Calu-6 tumour xenograft = Calu-6 tumour xenograft in vivo solid tumour model; conditions: once-daily oral, 28 days
cleaved caspase 3 [1] = assay: cleaved caspase 3 immunohistochemistry, A549 xenografts; type: in vivo, mice; conditions: A549 xenograft, 2 hours after 4 days of treatment; control 0.94%; Compound A 20 mg/kg, AZD2171 3 mg/kg
Experimental: Compound A was dosed two hours before AZD2171 (or vehicle). […] The levels of cleaved caspase 3 (percentage of positive nuclei) were determined in tumour xenografts by immunohistochemistry 2 hours after 4 days of treatment.

pAKT [2] = assay: pharmacodynamic study, pAKT in A549 xenograft tissue; type: in vivo, mice; conditions: 4 days of treatment, 2 hrs after last dosing, Compound A 20 mg/kg, AZD2171 3 mg/kg
Experimental: (§1) Compound A was dosed two hours before AZD2171 (or vehicle).
In the combination group, levels of pAKT were similar to those with Compound A to 58% (p<0.005) compared to control (FIG. 3).

pS6 [3] = assay: pharmacodynamic study, pS6 in A549 xenograft tissue; type: in vivo, mice; conditions: 4 days of treatment, 2 hrs after last dosing, Compound A 20 mg/kg, AZD2171 3 mg/kg
Experimental: as §1

NCI-H526 xenografts = assay: NCI-H526 xenograft tumour growth, combination study; type: in vivo; conditions: NCI-H526, nude mice, oral gavage; Compound A 20 mg/kg, AZD2171 3 mg/kg, combination same doses; compared with vehicle control
Experimental: Cells were grown in NCI-H526 (RPMI 10% FCS 1% Glutamine 10% Ml), and 1×10^7 cells were implanted into the flank of nude mice (NCI-H526 plus 50% matrigel).
When mean tumor size reached approx 0.2 cm^3, the mice were randomized into control and treatment groups. […] When administered in combination, COMPOUND A was given 2 hours […] the oral dose of the other compound. The control group received the (10% DMSO 90% propylene glycol) vehicle alone, once daily by oral gavage. Tumor volumes (measured by calliper), animal body weight and tumor condition were recorded twice weekly for the duration of the study. Mice were sacrificed by CO2 euthanasia. The tumor volume was calculated (taking length to be the longest diameter across the tumor and width to be the corresponding perpendicular diameter using the formula: (length×width)×√(length×width)×(π/6). Growth inhibition from the start of treatment was assessed by comparison of the differences in tumor volume between control and treated groups. Because the variance in mean tumor volume data increases proportionally with volume (and is therefore disproportionate between groups), data were log-transformed to remove any size dependency before statistical evaluation. Statistical significance was evaluated using a one-tailed, two-sample t test. To analyze the data from the combination study, the statistical tool SigmaStat has been used. […]

HUVEC = HUVEC assay, endothelial cell proliferation; type: cell-based; conditions: Homo sapiens
[4] = body weight loss in A549 study; type: in vivo, mice; conditions: Compound A 20 mg/kg, AZD2171 3 mg/kg, range in brackets
Experimental: When mean tumour volume reached approximately 0.27 cm^3, the mice were randomized into control and treatment groups. […] The control group received both vehicles alone (same sequence as above), once daily by oral gavage. Tumor volumes (measured by calliper), animal body weight and tumor condition were recorded twice weekly for the duration of the study. Mice were humanely sacrificed by CO2 euthanasia. Tumour volumes were assessed using bilateral Vernier calliper measurement at least twice weekly and calculated using the formula (length×width)×√(length×width)×(π/6), where length was taken to be the longest diameter across the tumour and width the corresponding perpendicular. Growth inhibition from the start of treatment was assessed by comparison of the differences in tumor volume between control and treated groups. Because the variance in mean tumor volume data increases proportionally with volume (and is therefore disproportionate between groups), data were log-transformed to remove any size dependency before statistical evaluation. Statistical significance was evaluated using a one-tailed, two-sample t test. […] A two-way ANOVA test was performed using the factors concentration of drug A and concentration of drug B. The data analyzed was Log(final tumor volume)−Log(initial tumor volume) calculated for each individual animal at the end of the study. […]

[5] = tested on: Microvessel density (CD31 staining); assay: microvessel density by CD31 immunohistochemistry, A549 xenografts; type: in vivo, mice; conditions: A549 xenograft, 2 hours after 4 days of treatment; vehicle 26.6%; Compound A 20 mg/kg, AZD2171 3 mg/kg
Experimental: Microvessel density (MVD) was evaluated using CD31 staining by immunohistochemistry 2 hours after 4 days of treatment.

A549 tumour xenografts = assay: A549 xenograft tumour growth, combination study; type: in vivo, mice; conditions: Compound A 20 mg/kg, AZD2171 3 mg/kg; for tumour growth inhibition: A549, female athymic mice, oral gavage once daily, 21 days, combination same doses, compared to control; for tumours smaller than at start of treatment: A549, individual tumour volumes at the end of the dosing period
Experimental: Human tumour xenografts were established in female athymic mice by injecting 5×10^6/0.1 ml A549a cells subcutaneously in the left hand side flank.
When mean tumour volume reached approximately 0.27 cm^3, the mice were randomized into control and treatment groups. […] The control group received both vehicles alone (same sequence as above), once daily by oral gavage. Tumor volumes (measured by calliper), animal body weight and tumor condition were recorded twice weekly for the duration of the study. Mice were humanely sacrificed by CO2 euthanasia. Tumour volumes were assessed using bilateral Vernier calliper measurement at least twice weekly and calculated using the formula (length×width)×√(length×width)×(π/6), where length was taken to be the longest diameter across the tumour and width the corresponding perpendicular. Growth inhibition from the start of treatment was assessed by comparison of the differences in tumor volume between control and treated groups. Because the variance in mean tumor volume data increases proportionally with volume (and is therefore disproportionate between groups), data were log-transformed to remove any size dependency before statistical evaluation. Statistical significance was evaluated using a one-tailed, two-sample t test. To analyze the data from the combination study, the statistical tool SigmaStat has been used. A two-way ANOVA test was performed using the factors concentration of drug A and concentration of drug B. The data analyzed was Log(final tumor volume)−Log(initial tumor volume) calculated for each individual animal at the end of the study. This tool is used to assess whether there is a main effect of drug A, a main effect of drug B plus a significant mechanistic interaction between the two compounds A and B (eg, one compound influences the effect of the other compound) which may be interpreted as antagonism, additivity or synergism. The statistical analysis was performed at the end of the dosing period (21 days).

[6] = molecular target: stem cell factor receptor tyrosine kinase (SCF RTK, commonly known as c-Kit) (Homo sapiens, UniProt P10721); assay: inhibition of c-Kit
Chain of stem cell factor receptor tyrosine kinase (SCF RTK, commonly known as c-Kit) (P10721 26-976): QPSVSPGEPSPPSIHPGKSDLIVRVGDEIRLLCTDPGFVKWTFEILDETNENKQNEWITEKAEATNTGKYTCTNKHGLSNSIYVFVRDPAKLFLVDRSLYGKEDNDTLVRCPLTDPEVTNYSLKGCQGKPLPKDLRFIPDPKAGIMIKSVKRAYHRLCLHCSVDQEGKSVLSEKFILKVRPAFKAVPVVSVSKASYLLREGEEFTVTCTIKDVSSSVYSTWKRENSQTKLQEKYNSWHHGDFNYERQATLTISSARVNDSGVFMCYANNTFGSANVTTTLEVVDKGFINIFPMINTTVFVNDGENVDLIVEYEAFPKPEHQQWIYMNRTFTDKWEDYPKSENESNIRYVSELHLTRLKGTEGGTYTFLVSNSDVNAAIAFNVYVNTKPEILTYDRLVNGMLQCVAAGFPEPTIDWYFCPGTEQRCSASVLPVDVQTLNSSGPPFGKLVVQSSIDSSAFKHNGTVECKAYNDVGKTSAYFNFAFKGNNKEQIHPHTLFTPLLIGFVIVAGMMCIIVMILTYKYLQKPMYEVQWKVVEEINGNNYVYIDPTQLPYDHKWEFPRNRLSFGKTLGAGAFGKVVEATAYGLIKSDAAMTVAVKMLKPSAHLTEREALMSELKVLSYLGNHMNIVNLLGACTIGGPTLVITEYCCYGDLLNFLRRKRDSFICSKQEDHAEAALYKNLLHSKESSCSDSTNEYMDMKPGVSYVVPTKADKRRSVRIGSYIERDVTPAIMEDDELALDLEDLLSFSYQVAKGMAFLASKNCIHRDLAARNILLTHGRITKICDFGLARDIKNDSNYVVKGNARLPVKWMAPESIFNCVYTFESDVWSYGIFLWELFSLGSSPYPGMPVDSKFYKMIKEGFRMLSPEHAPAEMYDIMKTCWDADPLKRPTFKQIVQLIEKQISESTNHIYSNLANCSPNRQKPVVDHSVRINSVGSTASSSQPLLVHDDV

[7] = body weight loss in U87MG study; type: in vivo, mice; conditions: Compound A 10 mg/kg, ZD6474 50 mg/kg, range in brackets
Experimental: (§2) Human tumour xenografts were established in female athymic mice by injecting 2.3×10^6/0.1 ml U87MG cells subcutaneously in the left hand side flank. When mean tumour volume reached approximately 0.18 cm^3, the mice were randomized into control and treatment groups. The treatment groups received 50 mg/kg ZD6474 (vehicle 1% polysorbate 80 milled overnight) or 10 mg/kg COMPOUND A (30% captisol pH5) or a combination 50 mg/kg ZD6474 and 10 mg/kg COMPOUND A by oral gavage. When administered in combination, COMPOUND A was given 2 hours before the oral dose of ZD6474. The control group received both vehicles (same sequence as above), once daily by oral gavage. Tumor volumes (measured by calliper), animal body weight and tumor condition were recorded twice weekly for the duration of the study. Mice were humanely sacrificed by CO2 euthanasia. Tumour volumes were assessed using bilateral Vernier calliper measurement at least twice weekly and calculated using the formula (length×width)×√(length×width)×(π/6), where length was taken to be the longest diameter across the tumour and width the corresponding perpendicular. Growth inhibition from the start of treatment was assessed by comparison of the differences in tumor volume between control and treated groups. […] Statistical significance was evaluated using a one-tailed, two-sample t test. […]

cleaved caspase 3 [8] = assay: cleaved caspase 3 immunohistochemistry, U87MG xenografts; type: in vivo, mice; conditions: U87MG xenograft, 2 hours after 4 days of treatment; control 0.46%; Compound A 10 mg/kg, ZD6474 50 mg/kg
Experimental: The levels of cleaved caspase 3 (percentage of positive nuclei) were determined in tumour xenografts by immunohistochemistry 2 hours after 4 days of treatment.

pS6 [9] = assay: pharmacodynamic study, pS6 in U87MG xenograft tissue; conditions: 4 days of treatment, 2 hrs after last dosing, Compound A 10 mg/kg, ZD6474 50 mg/kg
Experimental: A pharmacodynamic study evaluated biomarkers after 4 days of treatment. Animals were dosed with vehicle, ZD6474 (50 mg/kg), Compound A (10 mg/kg) or the combination daily. Compound A was dosed two hours before ZD6474 (or vehicle). Animals were culled and tumour xenograft tissue collected 2 hrs after the last dosing. […] In addition a two-way ANOVA test was performed to analyse the interaction between compounds in the combination group.

U87MG xenografts = assay: U87MG xenograft tumour growth, combination study; type: in vivo; conditions: female athymic mice, oral gavage once daily, 7 days, Compound A 10 mg/kg/qd, ZD6474 50 mg/kg/qd, combination same doses, compared to control
Experimental: as §2

[10] = tested on: Microvessel density (CD31 staining); assay: microvessel density by CD31 immunohistochemistry, U87MG xenografts; type: in vivo, mice; conditions: U87MG xenograft, 2 hours after 4 days of treatment; vehicle 59%; Compound A 10 mg/kg, ZD6474 50 mg/kg
Experimental: Microvessel density (MVD) was evaluated using CD31 staining by immuno-histochemistry 2 hours after 4 days of treatment. MVD values were 59% in vehicle-treated animals, reduced to 22% (p<0.05) after ZD6474, 50% (p=0.23) after Compound A, and 28% (p<0.05) after the combination (FIG. 8). There was no statistical interaction between compound A and ZD6474 in the combination-treated tumours (p=0.27).

pAKT [11] = assay: pharmacodynamic study, pAKT in U87MG xenograft tissue; type: in vivo, mice; conditions: 4 days of treatment, 2 hrs after last dosing, Compound A 10 mg/kg, ZD6474 50 mg/kg

Compound	inhibition of growth of Calu-6 tumour xenograft (Calu-6 tumour xenograft; 1.5 mg/kg/day)	inhibition of growth of Calu-6 tumour xenograft (Calu-6 tumour xenograft; 3 mg/kg/day)	inhibition of growth of Calu-6 tumour xenograft (Calu-6 tumour xenograft; 6 mg/kg/day)	CC3 values (percentage of positive nuclei) (cleaved caspase 3 [1])	levels of pAKT (normalised to total) compared to control (pAKT [2])	levels of pS6 (normalised to total) compared to control (pS6 [3])	reduction in geometric mean delta tumour volume (NCI-H526 xenografts)	IC50 (HUVEC; HUVEC assay, VEGF-stimulated, read-out: IC50, VEGF-stimulated endothelial cell proliferation)	IC50 (HUVEC; HUVEC, basal (no VEGF stimulation), read-out: IC50, basal endothelial cell proliferation)	maximum body weight loss [4]	MVD values [5]	tumour growth inhibition (A549 tumour xenografts)	tumours smaller than at start of treatment (A549 tumour xenografts)	inhibition of c-Kit [6]	maximum body weight loss [7]	CC3 values (percentage of positive nuclei) (cleaved caspase 3 [8])	levels of pS6 (normalised to total) compared to control (pS6 [9])	tumour growth inhibition (U87MG xenografts)	MVD values [10]	levels of pAKT (normalised to total) compared to control (pAKT [11])
COc1cc2c(Oc3ccc4[nH]c(C)cc4c3F)ncnc2cc1OCCCN1CCCC1 [AZD2171, 4-(4-fluoro-2-methyl-1H-indol-5-yloxy)-6-methoxy-7-(3-(pyrrolidin-1-yl)propoxy)quinazoline]	49%	69%	91%	0.43%	95%	126%	64%	0.4 ± 0.2 nM	> 500 nM	2.52%	7.75%	81.6%	tumour volumes were greater than at start of the treatment	inhibits c-Kit	–	–	–	–	–	–
COc1cc2c(Nc3ccc(Br)cc3F)ncnc2cc1OCC1CCN(C)CC1 [ZD6474, 4-(4-bromo-2-fluoroanilino)-6-methoxy-7-(1-methylpiperidin-4-ylmethoxy)quinazoline]	–	–	–	–	–	–	–	–	–	–	–	–	–	–	3.77%	0.73%	108%	−14.6%	22%	87%
COc1ccc(-c2ccc3c(N4CCOC[C@@H]4C)nc(N4CCOC[C@@H]4C)nc3n2)cc1CO [Compound A, [5-[2,4-bis[(3S)-3-methylmorpholin-4-yl]pyrido[5,6-e]pyrimidin-7-yl]-2-methoxyphenyl]methanol]	–	–	–	1.98%	48%	37%	38%	–	–	3.45%	19.39%	99.3%	4 out of 10	–	0.44%	1.64%	55%	28.4%	50%	37%
